# Test results as given in patent US9873695B2, “Serine derivatives as ghrelin receptor agonists” (RaQualia Pharma Inc., priority 2014, dated 2018).
# Molecular target: T1, human ghrelin receptor (Homo sapiens, UniProt Q92847)
# T1 construct: expressed in transfected cells
# Test: Ghrelin receptor agonistic activity induced Ca2+ influx in HEK293 cells stably expressing human ghrelin receptor
# Assay type: cell-based
# Conditions: Ca2+ influx (Fluo-4, FDSS6000), 11-point dose-response
# Experimental: Measurement of the Ghrelin Receptor Agonistic Activity Induced Ca^2+ Influx in HEK293 Cells Stably Expressing Human Ghrelin Receptor
# HEK293 cells stably expressing human ghrelin receptor were maintained in Dulbecco's modified Eagle medium (high glucose) supplemented with 10% fetal bovine serum, 100 units/ml penicillin, 100 microg/ml streptomycin and 500 microg/ml G418 at 37° C. in a humidified incubator with 5% CO2 and grown to 60-80% confluence. The day before the assay, the cells were seeded on poly-D-lysine coated 384-well plates (BD FALCON) at a density of 10,000 cells per well, and incubated overnight in incubator.
# On the day of the assay, the cells were washed three times with assay buffer (Hanks' balanced salt solution with 20 mM HEPES, pH7.4), and were incubated for 1 hour at room temperature to load 0.5 microM Fluo-4 AM reagent (Invitrogen).
# After removing Fluo-4, and washing with assay buffer, the cells were added with various concentrations of the compounds. The changes in intracellular calcium concentration were monitored with the fluorescence imaging plate reader, FDSS6000 (Hamamatsu Photonics).
# The EC50 values for compounds of the present invention were determined from 11-point dose-response studies. Curves were generated using the average of duplicate wells for each data point. Finally, the EC50 values were calculated using the best-fit dose curve determined by XLfit (ID Business Solutions Ltd).
# T1 sequence (Q92847 whole entry): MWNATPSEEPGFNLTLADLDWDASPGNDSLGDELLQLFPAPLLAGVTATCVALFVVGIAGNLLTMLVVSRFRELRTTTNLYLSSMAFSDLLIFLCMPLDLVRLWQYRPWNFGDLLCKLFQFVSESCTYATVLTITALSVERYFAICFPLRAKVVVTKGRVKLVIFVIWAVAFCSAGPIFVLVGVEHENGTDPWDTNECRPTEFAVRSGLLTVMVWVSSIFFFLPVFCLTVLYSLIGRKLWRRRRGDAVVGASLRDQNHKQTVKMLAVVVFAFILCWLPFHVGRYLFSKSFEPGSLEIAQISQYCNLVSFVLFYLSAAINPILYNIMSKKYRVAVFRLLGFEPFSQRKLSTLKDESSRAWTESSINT
row,EC50 [nM],SMILES
1,< 10,"CN1N=C2CCN(C(=O)[C@@H](COc3ccccn3)NC(=O)C(C)(C)N)C[C@@]2(Cc2ccccc2)C1=O [Example 17, 2-amino-N—((R)-1-((R)-3a-benzyl-2-methyl-3-oxo-3a,4,6,7-tetrahydro-2H-pyrazolo[4,3-c]pyridin-5(3H)-yl)-1-oxo-3-(pyridin-2-yloxy)propan-2-yl)-2-methylpropanamide]"
2,< 10,"CN1N=C2CCN(C(=O)[C@@H](COc3cncc(F)c3)NC(=O)C(C)(C)N)C[C@@]2(Cc2ccccc2)C1=O [Example 18, 2-amino-N—((R)-1-((R)-3a-benzyl-2-methyl-3-oxo-3a,4,6,7-tetrahydro-2H-pyrazolo[4,3-c]pyridin-5(3H)-yl)-3-((5-fluoropyridin-3-yl)oxy)-1-oxopropan-2-yl)-2-methylpropanamide]"
3,< 10,"CN1N=C2CCN(C(=O)[C@@H](COc3cc(C(F)(F)F)cc(C(F)(F)F)c3)NC(=O)C(C)(C)N)C[C@@]2(Cc2ccccc2)C1=O [Example 9, 2-amino-N—((R)-1-((R)-3a-benzyl-2-methyl-3-oxo-3a,4,6,7-tetrahydro-2H-pyrazolo[4,3-c]pyridin-5(3H)-yl)-3-(3,5-bis(trifluoromethyl)phenoxy)-1-oxopropan-2-yl)-2-methylpropanamide]"
4,< 10,"CN1N=C2CCN(C(=O)[C@@H](COc3ccc(C#N)cc3)NC(=O)C(C)(C)N)C[C@@]2(Cc2ccccc2)C1=O [Example 20, 2-amino-N—((R)-1-((R)-3a-benzyl-2-methyl-3-oxo-3a,4,6,7-tetrahydro-2H-pyrazolo[4,3-c]pyridin-5(3H)-yl)-3-(4-cyanophenoxy)-1-oxopropan-2-yl)-2-methylpropanamide]"
